According to US4124726A, “Anti-inflammatory agent of benzoyl derivative” (priority 1976, dated 1978):
Where two headings read alike, the source gives them in different places.

Key:
[1] = test system: carragheenin edema; test: acute carragheenin edema inhibition (anti-inflammatory effect); format: in vivo, male rats; conditions: for Anti-inf. (edema inhibition rate) / inhibition in vivo at 100 mg/kg: 100 mg/kg oral; for inhibition in vivo at 100 mg/kg / ED50: Rattus norvegicus; for inhibition in vivo at 100 mg/kg: read-out: Anti-inf. (edema inhibition rate); for ED50: read-out: 50% inhibition rate ED50
Method: The edema was induced by subcutaneous injection of 1% carraheenin suspension in saline to the hind paws of male rats weighing 150 to 180 g. Each sample was orally given at the dosage of 100 mg/kg just before the inoculation of carragheenin.

[2] = test system: platelet aggregation; test: blood platelet aggregation inhibition, collagen as inducer; format: cell-based; conditions: 10^-4 mole, rabbit PRP; for inhibition at 100 µM: Oryctolagus cuniculus, Platelet, read-out: Blood platelet agg. inh. (percentage inhibition of platelet aggregation)
Description: Blood platelet aggregation inhibiting effect
Male rabbits (Japan original white strain 3.3 to 3.6 kg) were anesthetized with Thiopental sodium and blood was sampled from the carotid artery.

[3] = in vivo; conditions: mouse, po
Method: Each sample was dissolved in olive oil or dispersed in 1% Tween 20 aqueous solution.

[4] = test system: thrombosis; test: inhibiting effect on thrombosis (arterio-venous by-pass, silk thread); format: in vivo, SD type male rats; conditions: for inhibition in vivo at 100 mg/kg: Rattus norvegicus, read-out: Thrombosis inh.
Method: Inhibiting effect on thrombosis:
The inhibiting effects of the samples of the invention on thrombosis were tested by the following test method.
A 0.5 ml of 50 μ/ml of the heparin physiological saline was added through the polyethylene tube before the first blood circulation. After the blood circulation for 15 minutes, the circulation was stopped in the middle of the tubing at artery side with a pinch cock.
Then, 0.2 ml of the heparin physiological saline was added to remove the blood coagulates on the tubing wall and another new polyethylene tubing filled with the heparin solution and containing a piece of new silk thread was attached between the venous and artery tubing ends.
The blood circulation was reestablished by opening the pinch cock. After 15 minutes, the wet weight of thrombus on the silk thread was similarly measured. In the same manner, the third circulation was performed and wet weight of thrombus measured.
The amount of thrombus was given by the equation A. [formula] Each sample was suspended in an aqueous solution of sodium carboxymethyl cellulose and the oral dose of the suspension (100 mg/kg) was performed at 5 hours before the first blood circulation. The amount of thrombus after the oral dose of the sample was calculated in the same manner as that of control circulations.
The thrombosis inhibition rate was given by the equation B. [formula]

[5] = test system: painful stretchings induced by acetic acid; test: acetic acid induced stretching (analgesic effect); conditions: for Analgesic (percentage diminution of times of painful stretchings): 100 mg/kg oral, 0.7% acetic acid i.p., mice; for inhibition in vivo at 100 mg/kg: Mus musculus, po, read-out: Analgesic (percentage diminution of times of painful stretchings)
Method: Each sample was orally administrated in the dosage of 100 mg/kg before injection of acetic acid.

[6] = carragheenin edema, rats, Table 2
[7] = 100 mg/kg oral, 5 hours before first circulation, rats
[8] = oral, carragheenin edema, rats, Table 2

Compound	Blood platelet agg. inh. (percentage inhibition of platelet aggregation) [2] [%]	LD50 at 72 h [3] [mg/kg]	Analgesic (percentage diminution of times of painful stretchings) [5] [%]	inhibition in vivo at 100 mg/kg [4, 7] [%]	ED50 [1, 8] [mg/kg]	further results
COc1ccc(C(=O)C(=O)c2ccccc2)cc1	20.1	10000	10.2	–	–	Anti-inf. (edema inhibition rate) [1, 6]: 43.9%; Thrombosis inh. [4, 7]: 18.3%
CCCCCCc1ccc(C(=O)c2ccc(C)cc2C)cc1 [Active ingredient No. 4]	–	4000	–	15.9	–	inhibition in vivo at 100 mg/kg [1, 6]: 44.2%; inhibition at 100 µM [2]: 20.5%; inhibition in vivo at 100 mg/kg [5]: 16.3%
CCCCc1ccc(C(=O)c2ccccc2F)cc1 [compound 8]	24.0	–	14.8	38	38	–
CCCCCc1ccc(C(=O)c2ccccc2F)cc1 [compound 9]	14.6	3000	15.3	–	22	–
Cc1ccc(C(=O)c2ccccc2F)c(C)c1 [compound 10]	18.5	500	20.3	–	90	–
Cc1cc(C)c(C(=O)c2ccccc2F)c(C)c1 [compound 11]	16.5	500	13.9	–	22	–
CCc1cc(CC)c(C(=O)c2ccccc2)c(CC)c1 [compound 13]	14.3	2000	15.8	–	> 400	–
Cc1cc(C)c(C(=O)c2ccc(Cl)cc2)c(C)c1 [compound 14]	18.1	500	19.2	–	130	–
O=C(c1ccccc1)c1ccccc1F [compound 15]	23.2	4000	18.5	–	65	–
CCCc1ccc(CCC)c(C(=O)c2ccccc2)c1 [compound 16]	8.6	1500	12.4	–	140	–
CCCCc1ccc(CCCC)c(C(=O)c2ccc(C)cc2)c1 [compound 17]	17.3	2000	10.3	–	180	–
CCCCc1ccc(C(=O)c2ccccc2)cc1 [compound 19]	18.6	2400	30.1	7.9	25	–
CCCc1ccc(C(=O)c2ccccc2)cc1 [compound 20]	36.6	2000	17.3	4.1	–	–
CC(C)c1ccc(C(=O)c2ccccc2)cc1 [compound 21]	8.6	2000	16.1	5.4	–	–
CC(C)(C)c1ccc(C(=O)c2ccccc2)cc1 [compound 22]	9.5	2000	8.2	7.9	–	–
O=C(c1ccccc1)c1ccccc1 [compound 27]	25.7	3700	13.2	–	–	Anti-inf. (edema inhibition rate) [1, 6]: 47.7%; ED50 ([1]; po): 120 mg/kg; Thrombosis inh. [4, 7]: 25.9%
COc1ccc(C(=O)c2ccccc2)cc1 [compound 28]	20.4	> 10000	4.2	–	–	Anti-inf. (edema inhibition rate) [1, 6]: 44.1%; inhibition in vivo at 100 mg/kg ([4]; po): 7.3%
CCCCc1ccc(C(=O)C(=O)c2ccccc2)cc1 [compound 29]	11.1	10000	2.7	–	130	–
Cc1cc(C)c(C(=O)c2ccccc2)c(C)c1 [compound 30]	–	1500	–	44.8	45	inhibition in vivo at 100 mg/kg [1, 6]: 64.7%; inhibition at 100 µM [2]: 8.7%; inhibition in vivo at 100 mg/kg [5]: 13.4%

Compound	Blood platelet agg. inh. (percentage inhibition of platelet aggregation) [2] [%]	LD50 at 72 h [3] [mg/kg]	Analgesic (percentage diminution of times of painful stretchings) [5] [%]	inhibition in vivo at 100 mg/kg [4, 7] [%]	ED50 [1, 8] [mg/kg]	further results
Cc1cc(C)c(C(=O)c2ccccc2)cc1C [compound 32]	12.4	2000	26.2	25	–	–
CCCCc1ccc(C(=O)c2ccc(C)cc2)cc1 [compound 35]	11.3	> 10000	–	26.5	–	–
Cc1ccc(C(=O)c2ccccc2)c(C)c1 [compound 37]	17.4	1000	9.8	5.3	–	–
CCCCc1ccc(C(=O)c2ccccc2C)cc1 [compound 40]	11.9	2000	20.3	–	120	–
CCCCc1ccc(C(=O)c2ccc(CCCC)cc2)cc1 [compound 43]	3.5	> 10000	–	86	–	–
CCCCc1ccc(C(=O)c2ccccc2Cl)cc1 [compound 44]	10.5	2000	15.6	–	70	–
CCCCCc1ccc(C(=O)c2ccc(OC)cc2)cc1 [compound 45]	17.7	5000	12.5	–	> 400	–
CCCCc1ccc(C(=O)c2ccc(F)cc2C)cc1 [compound 46]	16.5	2000	13.4	–	400	–
O=C(Cc1ccccc1)c1ccccc1 [compound 47]	18.3	–	13.1	–	–	Anti-inf. (edema inhibition rate) [1, 6]: 20.9%; Thrombosis inh. [4, 7]: 15.6%
O=C(C(=O)c1ccccc1)c1ccccc1 [compound 53]	10.1	–	14.2	–	–	Anti-inf. (edema inhibition rate) [1, 6]: 20.3%; Thrombosis inh. [4, 7]: 19.2%
Cc1ccc(C(=O)C(=O)c2ccccc2)cc1 [compound 54]	15.4	–	11.3	–	–	Anti-inf. (edema inhibition rate) [1, 6]: 25.5%; Thrombosis inh. [4, 7]: 20.3%
COc1ccc(C(=O)Cc2ccccc2)cc1 [compound 57]	12.5	–	–	6.5	–	–
CCCCOc1ccc(C(=O)Cc2ccc(Cl)cc2)cc1 [compound 61]	15.8	–	–	8.5	–	–
CCCCCCOc1ccc(C(=O)Cc2ccc(Cl)cc2)cc1 [compound 62]	12.3	–	–	7.8	–	–
CCCc1ccc(C(=O)c2ccc(Cl)cc2)cc1 [compound 63]	15.6	–	–	6.2	–	–
CCCCCCCCCc1ccc(C(=O)c2ccccc2)cc1 [compound 70]	17.2	–	–	10	–	–
CCCCCc1ccc(C(=O)c2ccc(C)cc2)cc1 [compound 84]	8.6	10000	15.3	16	–	–
CCCc1ccc(C(=O)c2ccccc2C)cc1 [compound 90]	10.8	–	–	15	–	–
Cc1ccccc1C(=O)c1c(C)c(C)cc(C)c1C [compound 91]	14.7	–	–	31	–	–
